US11851426B2, “Bicyclic amines as CDK2 inhibitors” (Incyte Corporation, priority 2019, dated 2023)

These compounds were tested against CDK2/Cyclin E1 (Homo sapiens (Human), UniProt P24941) (assay: CDK2/Cyclin E1 HTRF enzyme activity assay). Details: 1 mM ATP; CDK2/Cyclin E1 0.25 nM; 60 minutes at room temperature.
Assay type: biochemical
Method: Example A. CDK2/Cyclin E1 HTRF Enzyme Activity Assay
CDK2/Cyclin E1 enzyme activity assays utilize full-length human CDK2 co-expressed as N-terminal GST-tagged protein with FLAG-Cyclin E1 in a baculovirus expression system (Carna Product Number 04-165). Assays were conducted in white 384-well polystyrene plates in a final reaction volume of 8 μL. CDK2/Cyclin E1 (0.25 nM) was incubated with the compounds of the Examples (40 nL serially diluted in DMSO) in the presence of ATP (50 μM or 1 mM) and 50 nM ULight™-labeled eIF4E-binding protein 1 (THR37/46) peptide (PerkinElmer) in assay buffer (containing 50 mM HEPES pH 7.5, 1 mM EGTA, 10 mM MgCl2, 2 mM DTT, 0.05 mg/mL BSA, and 0.01% Tween 20) for 60 minutes at room temperature. The reactions were stopped by the addition of EDTA and Europium-labeled anti-phospho-4E-BP1 antibody (PerkinElmer), for a final concentration of 15 mM and 1.5 nM, respectively. HTRF signals were read after 1 hour at room temperature on a PHERAstar FS plate reader (BMG Labtech). Data was analyzed with IDBS XLFit and GraphPad Prism 5.0 software using a three or four parameter dose response curve to determine IC50 for each compound.

IC50, ≤ 20 nM:
CC(C)Oc1c(-c2cn[nH]c2)ncn2nc(N[C@H]3CCN(S(=O)(=O)CCCN(C)C(C)C)C[C@H]3C)nc12 [Example 57, 8-Isopropoxy-N-((3R,4S)-1-((3-(isopropyl(methyl)amino)propyl)sulfonyl)-3-methylpiperidin-4-yl)-7-(1H-pyrazol-4-yl)-[1,2,4]triazolo[1,5-c]pyrimidin-2-amine]
CCOc1c(-c2cn[nH]c2)ccn2nc(N[C@H]3CCN(S(=O)(=O)c4cnn(C)c4)C[C@H]3C)nc12 [Example 20, 8-ethoxy-N-((3R,4S)-3-methyl-1-((1-methyl-1H-pyrazol-4-yl)sulfonyl)piperidin-4-yl)-7-(1H-pyrazol-4-yl)-[1,2,4]triazolo[1,5-a]pyridin-2-amine]
CC(C)COc1c(-c2cn[nH]c2)ccc2nc(N[C@H]3CCN(S(C)(=O)=O)C[C@H]3C)nn12 [Example 70, 5-Isobutoxy-N-((3R,4S)-3-methyl-1-(methylsulfonyl)piperidin-4-yl)-6-(1H-pyrazol-4-yl)-[1,2,4]triazolo[1,5-a]pyridin-2-amine]
CCN(C)CCCCS(=O)(=O)N1CC[C@H](Nc2nc3c(OC(C)C)c(-c4cn[nH]c4)ncn3n2)[C@H](C)C1 [Example 65, N-((3R,4S)-1-((4-(Ethyl(methyl)amino)butyl)sulfonyl)-3-methylpiperidin-4-yl)-8-isopropoxy-7-(1H-pyrazol-4-yl)-[1,2,4]triazolo[1,5-c]pyrimidin-2-amine]
CC(C)Oc1c(-c2cn[nH]c2)ncc2nc(N[C@H]3CCN(S(=O)(=O)C4CC4)C[C@H]3C)nn12 [Example 89, N-((3R,4S)-1-(Cyclopropylsulfonyl)-3-methylpiperidin-4-yl)-5-isopropoxy-6-(1H-pyrazol-4-yl)-[1,2,4]triazolo[1,5-a]pyrazin-2-amine]
CCS(=O)(=O)N1CC[C@H](Nc2nc3cnc(-c4cn[nH]c4)c(OC4CCOCC4)n3n2)[C@H](C)C1 [Example 91, N-((3R,4S)-1-(Ethylsulfonyl)-3-methylpiperidin-4-yl)-6-(1H-pyrazol-4-yl)-5-((tetrahydro-2H-pyran-4-yl)oxy)-[1,2,4]triazolo[1,5-a]pyrazin-2-amine]
CCOc1c(-c2cn[nH]c2)ccn2nc(N[C@H]3CCN(S(=O)(=O)c4cnn(C)n4)C[C@H]3C)nc12 [Example 21, 8-ethoxy-N-((3R,4S)-3-methyl-1-((2-methyl-2H-1,2,3-triazol-4-yl)sulfonyl)piperidin-4-yl)-7-(1H-pyrazol-4-yl)-[1,2,4]triazolo[1,5-a]pyridin-2-amine]
C[C@@H]1CN(S(C)(=O)=O)CC[C@@H]1Nc1nc2cnc(-c3cn[nH]c3)c(OCC3(C(F)(F)F)CCC3)n2n1 [Example 114, N-((3R,4S)-3-Methyl-1-(methylsulfonyl)piperidin-4-yl)-6-(1H-pyrazol-4-yl)-5-((1-(trifluoromethyl)cyclobutyl)methoxy)-[1,2,4]triazolo[1,5-a]pyrazin-2-amine]
[2H]C([2H])([2H])C([2H])([2H])Oc1c(-c2cn[nH]c2)ccn2nc(N[C@H]3CCN(S(C)(=O)=O)C[C@H]3C)nc12 [Example 41, 8-(ethoxy-d5)-N-((3R,4S)-3-methyl-1-(methylsulfonyl)piperidin-4-yl)-7-(1H-pyrazol-4-yl)-[1,2,4]triazolo[1,5-a]pyridin-2-amine]
C[C@@H]1CN(S(C)(=O)=O)CC[C@@H]1Nc1nc2c(OC3CCOCC3)c(-c3cn[nH]c3)ccn2n1 [Example 42, N-((3R,4S)-3-methyl-1-(methylsulfonyl)piperidin-4-yl)-7-(1H-pyrazol-4-yl)-8-((tetrahydro-2H-pyran-4-yl)oxy)-[1,2,4]triazolo[1,5-a]pyridin-2-amine]
C[C@@H]1CN(S(=O)(=O)C2CC2)CC[C@@H]1Nc1nc2ccc(-c3cn[nH]c3)c(N3CCCCC3)n2n1 [Example 85, N-((3R,4S)-1-(Cyclopropylsulfonyl)-3-methylpiperidin-4-yl)-5-(piperidin-1-yl)-6-(1H-pyrazol-4-yl)-[1,2,4]triazolo[1,5-a]pyridin-2-amine]
C[C@@H]1CN(S(C)(=O)=O)CC[C@@H]1Nc1nc2ccc(-c3cn[nH]c3)c(OC3CCOCC3)n2n1 [Example 98, N-((3R,4S)-3-Methyl-1-(methylsulfonyl)piperidin-4-yl)-6-(1H-pyrazol-4-yl)-5-((tetrahydro-2H-pyran-4-yl)oxy)-[1,2,4]triazolo[1,5-a]pyridin-2-amine]
CC(C)COc1c(-c2cn[nH]c2)ncn2nc(NC3CCN(S(C)(=O)=O)CC3)nc12 [Example 44, 8-Isobutoxy-N-(1-(methylsulfonyl)piperidin-4-yl)-7-(1H-pyrazol-4-yl)-[1,2,4]triazolo[1,5-c]pyrimidin-2-amine]
CC(C)Oc1c(-c2cn[nH]c2)ncn2nc(N[C@H]3CCN(S(=O)(=O)CCCN4CCCCC4)C[C@H]3C)nc12 [Example 58, 8-Isopropoxy-N-((3R,4S)-3-methyl-1-((3-(piperidin-1-yl)propyl)sulfonyl)piperidin-4-yl)-7-(1H-pyrazol-4-yl)-[1,2,4]triazolo[1,5-c]pyrimidin-2-amine]
CC(C)COc1c(-c2ccnc(N)c2)ccn2nc(NC3CCN(S(C)(=O)=O)CC3)nc12 [Example 16, 7-(2-aminopyridin-4-yl)-8-isobutoxy-N-(1-(methylsulfonyl)piperidin-4-yl)-[1,2,4]triazolo[1,5-a]pyridin-2-amine]
CCCOc1c(-c2cn[nH]c2)ccc2nc(NC3CCN(S(C)(=O)=O)CC3)nn12 [Example 78, N-(1-(Methylsulfonyl)piperidin-4-yl)-5-propoxy-6-(1H-pyrazol-4-yl)-[1,2,4]triazolo[1,5-a]pyridin-2-amine]
CS(=O)(=O)N1CCC(Nc2nc3cnc(-c4cn[nH]c4)c(OCC4(C(F)(F)F)CCC4)n3n2)CC1 [Example 120, N-(1-(Methylsulfonyl)piperidin-4-yl)-6-(1H-pyrazol-4-yl)-5-((1-(trifluoromethyl)cyclobutyl)methoxy)-[1,2,4]triazolo[1,5-a]pyrazin-2-amine]
C[C@@H]1CN(S(C)(=O)=O)CC[C@@H]1Nc1nc2ccc(-c3cn[nH]c3)c(OC3CCC(F)(F)C3)n2n1 (stereo partly drawn) [Example 75, 5-((3,3-Difluorocyclopentyl)oxy)-N-((3R,4S)-3-methyl-1-(methylsulfonyl)piperidin-4-yl)-6-(1H-pyrazol-4-yl)-[1,2,4]triazolo[1,5-a]pyridin-2-amine]
CS(=O)(=O)N1CCC(Nc2nc3c(-c4ccccc4)c(-c4cn[nH]c4)ccn3n2)CC1 [Example 22, N-(1-(methylsulfonyl)piperidin-4-yl)-8-phenyl-7-(1H-pyrazol-4-yl)-[1,2,4]triazolo[1,5-a]pyridin-2-amine]
CC(C)COc1c(-c2cn[nH]c2)ccn2nc(NC3CCN(S(C)(=O)=O)CC3)nc12 [Example 3, 8-isobutoxy-N-(1-(methylsulfonyl)piperidin-4-yl)-7-(1H-pyrazol-4-yl)-[1,2,4]triazolo[1,5-a]pyridin-2-amine]
CC(C)Oc1c(-c2cn[nH]c2)ncn2nc(N[C@H]3CCN(S(=O)(=O)CCN4CCCC4)C[C@H]3C)nc12 [Example 38, 8-isopropoxy-N-((3R,4S)-3-methyl-1-((2-(pyrrolidin-1-yl)ethyl)sulfonyl)piperidin-4-yl)-7-(1H-pyrazol-4-yl)-[1,2,4]triazolo[1,5-c]pyrimidin-2-amine]
CC1CC(Oc2c(-c3cn[nH]c3)ncc3nc(N[C@H]4CCN(S(C)(=O)=O)C[C@H]4C)nn23)CCO1 (stereo partly drawn) [Example 112, N-((3R,4S)-3-Methyl-1-(methylsulfonyl)piperidin-4-yl)-5-((2-methyltetrahydro-2H-pyran-4-yl)oxy)-6-(1H-pyrazol-4-yl)-[1,2,4]triazolo[1,5-a]pyrazin-2-amine]
CCSc1c(-c2cn[nH]c2)ncc2nc(NC3CCN(S(C)(=O)=O)CC3)nn12 [Example 123, 5-(Ethylthio)-N-(1-(methylsulfonyl)piperidin-4-yl)-6-(1H-pyrazol-4-yl)-[1,2,4]triazolo[1,5-a]pyrazin-2-amine]
CC(C)CCOc1c(-c2cn[nH]c2)ncc2nc(NC3CCN(S(C)(=O)=O)CC3)nn12 [Example 121, 5-(Isopentyloxy)-N-(1-(methylsulfonyl)piperidin-4-yl)-6-(1H-pyrazol-4-yl)-[1,2,4]triazolo[1,5-a]pyrazin-2-amine]
CS(=O)(=O)N1CCC(Nc2nc3cnc(-c4cn[nH]c4)cn3n2)CC1 [Example 8, N-(1-(methylsulfonyl)piperidin-4-yl)-6-(1H-pyrazol-4-yl)-[1,2,4]triazolo[1,5-a]pyrazin-2-amine]
C[C@@H]1CN(S(C)(=O)=O)CC[C@@H]1Nc1nc2ccc(-c3cn[nH]c3)c(N3CCCCC3)n2n1 [Example 83, N-((3R,4S)-3-Methyl-1-(methylsulfonyl)piperidin-4-yl)-5-(piperidin-1-yl)-6-(1H-pyrazol-4-yl)-[1,2,4]triazolo[1,5-a]pyridin-2-amine]
C[C@@H]1CN(S(C)(=O)=O)CC[C@@H]1Nc1nc2cnc(-c3cn[nH]c3)c(OC3CC3)n2n1 [Example 109, 5-Cyclopropoxy-N-((3R,4S)-3-methyl-1-(methylsulfonyl)piperidin-4-yl)-6-(1H-pyrazol-4-yl)-[1,2,4]triazolo[1,5-a]pyrazin-2-amine]
